Experimental findings from patent US20250161473A1, “EXATECAN DERIVATIVE-ANTIBODY CONJUGATE AND MEDICAL USE THEREOF” (Gan & Lee Pharmaceuticals Co., Ltd., priority 2022, published 2025) are described below.

The first assay concerns MDA-MB-468 cell line with high TROP-2 expression. Kind of assay: Inhibition test of Exatecan derivatives (payload) on in vitro proliferation of tumor cells. Particulars: Homo sapiens, 72 h; MDA-MB-468 cells, 3 days, CellTiter-Glo; read-out: IC50 of MDA-MB-468 cell proliferation inhibition in vitro. The class given is cell-based, human. Here is the method:
The cell line used in this experiment is the MDA-MB-468 cell line with high TROP-2 expression (Nanjing Cobioer Biosciences Co., Ltd., catalog number: CBP60387). Prepare cell suspension with fresh cell culture medium containing 10% FBS at a density of 3×10^3 cells/mL, add 90 μL per well into an all-white 96-well cell culture plate (Beyotime, item number: FCP968-80pcs), 5% carbon dioxide 37° C. for 24 h. Compounds 1-36 were formulated with DMSO to 1 mM, respectively. Add 20 μL of different samples to be tested in the first column of the 96-well U-bottom dispensing plate, and the sample concentration is 1000 uM; add 20 μL DMSO to each well of the second to tenth columns. Take 5 μL of the sample from the first column to 20 μL DMSO in the second column, mix well, take 5 μL to the third column, and so on to the ninth column. Take 5 μL of the medicine from each well of the dispensing plate to 95 μL of DMEM medium, and mix well. Add 10 μL of prepared samples to be tested at different concentrations to the culture plate, and duplicate wells for each sample. 5% carbon dioxide and cultured at 37° C. for 3 days. Add 50 μL of CTG (CellTiter-Glo® Luminescent Cell Viability Assay, Promega, item number: G7573) to each well, mix on a shaker at room temperature for 30 minutes, incubate for 10 minutes, and read chemiluminescence on a microplate reader (TECAN, Spark). Graphpad Prism 8 software used for data analysis.
For the compound `CC[C@@]1(O)C(=O)OCc2c1cc1n(c2=O)Cc2c-1nc1cc(F)c(C)c3c1c2[C@@H](NC(=O)Cc1cccc(N)c1)CC3` [Compound 23], the IC50 was 2.64 nM.

The same assay, now with this note: Homo sapiens, MDA-MB-468, 72 h, read-out: IC50 of MDA-MB-468 cell proliferation inhibition in vitro.
Regarding `CC[C@@]1(O)C(=O)OCc2c1cc1n(c2=O)Cc2c-1nc1cc(F)c(C)c3c1c2[C@@H](NC(=O)c1ccc(O)c(Cl)c1)CC3` [Compound 6], the IC50 amounted to 9.81 nM. The same measure, in the same setting: under `CC[C@@]1(O)C(=O)OCc2c1cc1n(c2=O)Cc2c-1nc1cc(F)c(C)c3c1c2[C@@H](NC(=O)Cc1ccc(N)cc1)CC3` [Compound 2] stands 3.38 nM; under `CC[C@@]1(O)C(=O)OCc2c1cc1n(c2=O)Cc2c-1nc1cc(F)c(C)c3c1c2[C@@H](NC(=O)C1CCNCC1)CC3` [Compound 31], 136 nM. Regarding `CC[C@@]1(O)C(=O)OCc2c1cc1n(c2=O)Cc2c-1nc1cc(F)c(C)c3c1c2[C@@H](NC(=O)N[C@@H]1CCNC1)CC3` [Compound 14], the IC50 amounted to 48 nM. Still for that read-out and setting: under `CC[C@@]1(O)C(=O)OCc2c1cc1n(c2=O)Cc2c-1nc1cc(F)c(C)c3c1c2[C@@H](NC(=O)Cc1ccc(O)cc1)CC3` [Compound 22] stands 2.6 nM; under `CC[C@@]1(O)C(=O)OCc2c1cc1n(c2=O)Cc2c-1nc1cc(F)c(C)c3c1c2[C@@H](NC(=O)N[C@H]1CCCNC1)CC3` [Compound 12], 56.2 nM; under `CC[C@@]1(O)C(=O)OCc2c1cc1n(c2=O)Cc2c-1nc1cc(F)c(C)c3c1c2[C@@H](NC(=O)[C@@H]1CCCN1C(=O)CO)CC3` [Compound 5], 19.3 nM. `CC[C@@]1(O)C(=O)OCc2c1cc1n(c2=O)Cc2c-1nc1cc(F)c(C)c3c1c2[C@@H](NC(=O)Cc1ccccc1N)CC3` [Compound 24]: the IC50 came out at 1.65 nM. As for `CC[C@@]1(O)C(=O)OCc2c1cc1n(c2=O)Cc2c-1nc1cc(F)c(C)c3c1c2[C@@H](NC(=O)c1ccc(Cl)c(O)c1)CC3` [Compound 7], the IC50 was determined as 9.45 nM.

For the compound `CC[C@@]1(O)C(=O)OCc2c1cc1n(c2=O)Cc2c-1nc1cc(F)c(C)c3c1c2[C@@H](NC(=O)Cc1ccc(NC(=O)CO)cc1)CC3` [Compound 3], the IC50 stood at 43.6 nM.

As to `CC[C@@]1(O)C(=O)OCc2c1cc1n(c2=O)Cc2c-1nc1cc(F)c(C)c3c1c2[C@@H](NC(=O)N[C@H]1CCNC1)CC3` [Compound 13], the IC50 stood at 76.5 nM. Still for that read-out and setting: the same measure for `CC[C@@]1(O)C(=O)OCc2c1cc1n(c2=O)Cc2c-1nc1cc(F)c(C)c3c1c2[C@@H](NC(=O)CCc1ccc(N)cc1)CC3` [Compound 25]: 8.63 nM. For `CC[C@@]1(O)C(=O)OCc2c1cc1n(c2=O)Cc2c-1nc1cc(F)c(C)c3c1c2[C@@H](NC(=O)[C@@H]1CCCN1)CC3` [Compound 4], the IC50 was 4.32 nM. Same read-out and setting: under `CC[C@@]1(O)C(=O)OCc2c1cc1n(c2=O)Cc2c-1nc1cc(F)c(C)c3c1c2[C@@H](NC(=O)C1CNC1)CC3` [Compound 1] stands 135 nM; under `CC[C@@]1(O)C(=O)OCc2c1cc1n(c2=O)Cc2c-1nc1cc(F)c(C)c3c1c2[C@@H](NC(=O)Cc1ccc(N)cc1F)CC3` [Compound 21], 3.05 nM; under `CC[C@@]1(O)C(=O)OCc2c1cc1n(c2=O)Cc2c-1nc1cc(F)c(C)c3c1c2[C@@H](NC(=O)Cc1ccc(N)cc1OC)CC3` [Compound 19], 7.52 nM.

Turning to `CC[C@@]1(O)C(=O)OCc2c1cc1n(c2=O)Cc2c-1nc1cc(F)c(C)c3c1c2[C@@H](NC(=O)CCCc1ccc(N)cc1)CC3` [Compound 26], the IC50 stood at 3.28 nM. Same read-out and setting: under `CC[C@@]1(O)C(=O)OCc2c1cc1n(c2=O)Cc2c-1nc1cc(F)c(C)c3c1c2[C@@H](NC(=O)NCC(F)(F)F)CC3` [Compound 8] stands 2.72 nM.

Staying with this assay, now noted: MDA-MB-468 cells, 3 days, CellTiter-Glo; read-out: IC50 of MDA-MB-468 cell proliferation inhibition in vitro.
For the compound `CC[C@@]1(O)C(=O)OCc2c1cc1n(c2=O)Cc2c-1nc1cc(F)c(C)c3c1c2[C@@H](NC(=O)C1CCCN1)CC3` (some centres unmarked) [Compound 36], the IC50 is 6.34 nM.
